The values that follow come from PMC4358806 (European Journal of Medicinal Chemistry, 2013).

For data set [1], the system named is tumor cell lines. Kind of data set: Cytostatic activity, ranges over several tumor cell lines. The format is cell-based.
In data set [2] the test system is Huh 7 cells. As to conditions: cited from earlier work.
The subject of data set [3] is HCV replicon (type 1b). As to conditions: read-out: EC50 HCV replicon, Huh 7 cells; cited from earlier work.
Data set [4] concerns HEL and CrFK cell cultures. In words: Cytotoxicity. Type of data set: cell-based.
In data set [5] the test system is Feline herpes virus. Kind of data set: organism not typed. Type of data set: cell-based. As to conditions: read-out: EC50 Feline herpes virus.
The test system of data set [6] is human and feline herpes viruses. In words: organism not typed. Type of data set: cell-based. The following applies: read-out: EC50 against human and feline herpes viruses.
Data set [7] relates to HCV replicon (type 1b). In words: HCV replicon assay. Type of data set: cell-based. As to conditions: L-alanine vs D-alanine derivative. A general note: Replicon systems follow genome replication, usually without infectious particles.
Data set [8] relates to HIV-2(ROD). The format is cell-based.
Data set [9] relates to HIV-1(IIIB). The format is cell-based.
In data set [10] the test system is HIV-1 and HIV-2. The format is cell-based.
Data set [11] can be described thus: Cytotoxicity in HCV replicon assay, Huh 7 cells. The format is cell-based. The following applies: human, Huh 7 cells (HCV replicon type 1b).
The target of data set [12] is T1, carboxypeptidase Y (Saccharomyces cerevisiae, UniProt P00729).
T1 sequence (P00729 112-532): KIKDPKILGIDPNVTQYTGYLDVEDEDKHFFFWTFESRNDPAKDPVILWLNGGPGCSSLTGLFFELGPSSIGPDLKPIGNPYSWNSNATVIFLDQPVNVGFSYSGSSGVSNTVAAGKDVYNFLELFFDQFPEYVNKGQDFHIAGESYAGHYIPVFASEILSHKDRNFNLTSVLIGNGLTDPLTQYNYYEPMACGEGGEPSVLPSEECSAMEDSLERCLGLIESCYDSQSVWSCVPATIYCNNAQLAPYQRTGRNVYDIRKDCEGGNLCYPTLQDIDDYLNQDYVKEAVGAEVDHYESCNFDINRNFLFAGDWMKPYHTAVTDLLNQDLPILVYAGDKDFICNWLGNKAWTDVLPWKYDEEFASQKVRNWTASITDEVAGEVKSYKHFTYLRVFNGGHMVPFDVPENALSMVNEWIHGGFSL
In words: Carboxypeptidase Y-mediated cleavage monitored by 31P NMR. The format is in vitro ADME. The following applies: d6-acetone and Trizma buffer pH 7.6, room temperature.

Data set [13] has as its system HIV-1 (X4LAI.04). Kind of data set: microbe, parasite or virus in culture. Type of data set: cell-based.
In data set [14] the test system is Herpes simplex virus 1(KOS). Type of data set: cell-based, herpes simplex virus type 1. The following applies: read-out: EC50 Herpes simplex virus 1(KOS).
Data set [15] has as its system L1210 (mouse lymphocytic leukemia cells). The format is cell-based. The following applies: read-out: IC50 (50% inhibitory concentration), proliferation.
For data set [16], the system named is Herpes simplex virus 2 (G). The format is cell-based, herpes simplex virus type 2. As to conditions: read-out: EC50 Herpes simplex virus 2 (G).
Data set [17] deals with HeLa/TK− cells. The format is cell-based, human. As to conditions: read-out: IC50 (50% inhibitory concentration), proliferation.
The subject of data set [18] is Herpes simplex virus 1TK−(KOS)ACVr. The format is cell-based, herpes simplex virus type 1. As to conditions: read-out: EC50 Herpes simplex virus 1TK−(KOS)ACVr.
Data set [19] deals with HeLa (human cervical carcinoma cells). The format is cell-based. The following applies: read-out: IC50 (50% inhibitory concentration), proliferation.
Data set [20] has as its system CEM (human T-lymphocyte cells). Type of data set: cell-based. As to conditions: read-out: IC50 (50% inhibitory concentration), proliferation.
Where [21] appears, read: read-out: IC50, range over all tested tumor cell lines.
The mark [22] stands for this setting: read-out: IC50, range over cell lines.

Read-outs that look alike come from different tables or passages of the source. Some results are limits rather than exact numbers.

Regarding `Nc1ccn([C@@H]2CS[C@H](CO)O2)c(=O)n1` [Compound 5, lamivudine, reference compound], the IC50 in data set [1] (setting [21]) was > 250 µM.
As a reminder, the CC50 is the concentration at which the toxic effect on the cells reaches its halfway point. What is called EC50 is the concentration needed to bring the measured effect to its halfway point. `[N-]=[N+]=N[C@]1(CO)O[C@@H](n2ccc(=O)[nH]c2=O)[C@H](O)[C@@H]1O` [Compound 7, 4′-azidouridine]: the CC50 in data set [2] was > 100 µM. In addition, in data set [3], the EC50 is > 100 µM.
As to `[N-]=[N+]=N[C@]1(CO)O[C@@H](n2ccc(N)nc2=O)[C@H](O)[C@@H]1O` [Compound 8, 4′-azidocytidine], the CC50 in data set [2] was > 100 µM. Further, in data set [3], the EC50 is 7.13 µM.
Take `NC(=O)c1ncn([C@@H]2O[C@H](CO)[C@@H](O)[C@H]2O)n1` [Compound 9, ribavirin]: the CC50 in data set [2] is > 100 µM. For the same molecule, the EC50 in [3] was 87 µM.
`Nc1nc2c(ncn2COCCO)c(=O)[nH]1` [Compound 10, acyclovir, reference compound]: the CC50 in data set [2] was > 30 µM. The “MCC (cytotoxicity)” value in data set [4] was >100 µM. In addition, the EC50 in data set [5] is > 100 µM; in [3], 30 µM.
With `NC(=O)c1ncn([C@@H]2O[C@H](CO)[C@@H](O)[C@H]2O)c1N` [Compound 13, acadesine, reference compound], the “MCC (cytotoxicity)” value in data set [4] is >100 µM. Further, the EC50 in data set [6] and in data set [5] was > 100 µM throughout.
Turning to `CCOc1nc(N)nc2c1ncn2[C@@H]1O[C@H](COP(=O)(N[C@@H](C)C(=O)OCC(C)(C)C)N[C@@H](C)C(=O)OCC(C)(C)C)[C@@H](O)[C@@]1(C)F` [Compound 14, (2R,3R,4R,5R)-5-(2-amino-6-ethoxy-9H-purin-9-yl)-4-fluoro-2-(hydroxymethyl)-4-methyltetrahydrofuran-3-ol-5′-O-bis-(2,2-dimethylpropoxy-L-alaninyl)-phosphate], in data set [7], the “improved anti-HCV activity compared to 15” value was determined as 4 fold.
On to `C[C@H](NP(=O)(N[C@@H](C)C(=O)OCC(C)(C)C)OC[C@@H]1CC[C@H](n2cnc3c(N)ncnc32)O1)C(=O)OCC(C)(C)C` [Compound 19, ddA-5′-O-bis-(2,2-dimethylpropoxy-L-alaninyl)-phosphate], for which, in [8], the “boost of activity compared to parent nucleoside, HIV-2” value is 57 fold. The IC50 in data set [1] (setting [22]) lay within 35 to 76 µM. Further, the “boost of activity compared to parent nucleoside, HIV-1” value in data set [9] is 72 fold.
With `Cc1cn([C@H]2C[C@H](N=[N+]=[N-])[C@@H](COP(=O)(N[C@@H](C)C(=O)OCc3ccccc3)N[C@@H](C)C(=O)OCc3ccccc3)O2)c(=O)[nH]c1=O` [Compound 20, 3′-azido-3′-deoxythymidine-5′-O-bis(benzoxy-L-alaninyl)-phosphate], in [10], the “anti-HIV activity compared to the parent” value is on record as “equipotent to the parent”.
In the case of `C[C@H](NP(=O)(N[C@@H](C)C(=O)OCc1ccccc1)OC[C@H]1O[C@@H](n2ccc(N)nc2=O)CS1)C(=O)OCc1ccccc1` [Compound 25, 3TC-5′-O-bis(benzoxy-L-alaninyl)-phosphate], the IC50 in data set [1] (setting [21]) fell in the range of 38 to 116 µM.
For `C[C@H](NP(=O)(N[C@@H](C)C(=O)OCc1ccccc1)OC[C@H]1O[C@@H](n2cnc(C(N)=O)n2)[C@H](O)[C@@H]1O)C(=O)OCc1ccccc1` [Compound 30, ribavirin-5′-O-bis(benzoxy-L-alaninyl)-phoshate], the CC50 in data set [11] is > 100 µM.
`C[C@H](NP(=O)(N[C@@H](C)C(=O)OCc1ccccc1)OCCOCn1cnc2c(=O)[nH]c(N)nc21)C(=O)OCc1ccccc1` [Compound 32, acyclovir-5′-O-bis[(benzoxy-L-alaninyl)]-phosphate]: the “time to full conversion into metabolite” value in data set [12] is on record as 7.5 h. Also, the “MCC (cytotoxicity)” value in data set [4] was >100 µM. For the same molecule, the EC50 was > 100 µM in data set [5] and 2 to 4 µM in data set [13] (Human immunodeficiency virus 1, MT4, 72 h, read-out: EC50 HIV-1). In data set [13], the “boost in activity compared to ACV, HIV-1” value is > 60 fold.
Take `C[C@H](NP(=O)(N[C@@H](C)C(=O)OCC(C)(C)C)OCCOCn1cnc2c(=O)[nH]c(N)nc21)C(=O)OCC(C)(C)C` [Compound 33, acyclovir-5′-O-bis[(2,2-dimethylpropoxy-L-alaninyl)]-phosphate]: the “MCC (cytotoxicity)” value in data set [4] is >100 µM. Moreover, the EC50 in data set [5] was > 100 µM. Moreover, in data set [13], the “boost in activity compared to ACV, HIV-1” value was > 60 fold.
`C[C@H](NP(=O)(N[C@@H](C)C(=O)OCc1ccccc1)OC[C@@H]1C=C[C@H](n2cnc3c(NC4CC4)nc(N)nc32)C1)C(=O)OCc1ccccc1` [Compound 34, abacavir-5′-O-bis(benzoxy-L-alaninyl)-phosphate]: the IC50 in data set [1] (setting [22]) lay in the range of 19 to 54 µM.
On to `C[C@H](NP(=O)(N[C@@H](C)C(=O)OCC(C)(C)C)OC[C@@H]1C=C[C@H](n2cnc3c(NC4CC4)nc(N)nc32)C1)C(=O)OCC(C)(C)C` [Compound 35, abacavir-5′-O-bis-(2,2-dimethylpropoxy-L-alaninyl)-phosphate], for which the IC50 in [1] (setting [22]) was in the range of 19 to 54 µM.
For `CCCCCc1ccc(-c2cc3cn([C@H]4C[C@H](O)[C@@H](COP(=O)(N[C@@H](C)C(=O)OCc5ccccc5)N[C@@H](C)C(=O)OCc5ccccc5)O4)c(=O)nc3o2)cc1` [Compound 36, 3-(2′-deoxy-β-D-ribofuranosyl)-6-(4-n-pentylphenyl)-2,3-dihydrofuro-[2,3-d]pyrimidin-2-one-5′-O-bis-(benzoxy-L-alaninyl)-phosphate], the EC50 in data set [6] and in data set [5] was > 100 µM each time.
Turning to `C[C@H](NP(=O)(N[C@@H](C)C(=O)OCc1ccccc1)OC[C@H]1O[C@@H](n2cnc(C(N)=O)c2N)[C@H](O)[C@@H]1O)C(=O)OCc1ccccc1` [Compound 38, acadesine-5′-O-bis(benzoxy-L-alaninyl)-phosphate], the “MCC (cytotoxicity)” value in data set [4] was >100 µM. Moreover, the EC50 in data set [5] was > 100 µM.
In the same order, the values of `COC(=O)[C@H](C)NP(=O)(N[C@@H](C)C(=O)OC)OC[C@H]1O[C@@H](n2cnc(C(N)=O)c2N)[C@H](O)[C@@H]1O` [Compound 39, acadesine-5′-O-bis(methoxy-L-alaninyl)-phosphate] are >100 µM and > 100 µM.
Consider “acadesine-5′-O-bis(2,2-dimethylpentoxy-L-alaninyl)-phosphate [Compound 40]”, for which the “MCC (cytotoxicity)” value in data set [4] was >100 µM. Moreover, the EC50 in data set [14], in [5], in data set [16] and in data set [18] was > 100 µM throughout. In addition, the IC50 in data set [15], in data set [17], in data set [19] and in data set [20] was > 250 µM each time.
